Source: the supplement of paper PMC10307832

Tests used:
Assay in all cases: relative viability (nuclei count vs DMSO), 5 days (fraction); higher = more cells survive
[1] = compound: Nc1ccn([C@@H]2O[C@H](CO)[C@@H](O)C2(F)F)c(=O)n1 [Gemcitabine] + Cc1nc(NC(=O)N2CCC[C@H]2C(N)=O)sc1-c1ccnc(C(C)(C)C(F)(F)F)c1 [Alpelisib] (partner 2 µM)
Procedure, shortened: (§1)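 Relative viability divides the nuclei count in treated wells by that in vehicle wells. Lung cancer cell lines were seeded in 1536-well plates, dosed by pin tool the next day, and fixed and stained after 5 days in one step with final 0.05% Triton X-100, 1% formaldehyde and 1 ug/ml Hoechst. Dosing was a single drug or a fixed anchor-drug dose plus five library-drug doses (not always all listed) in √10 steps, and values are medians of duplicate plates imaged at 4×.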

[2] = compound: Nc1ccn([C@@H]2O[C@H](CO)[C@@H](O)C2(F)F)c(=O)n1 [Gemcitabine] + CCNC(=O)c1noc(-c2cc(C(C)C)c(O)cc2O)c1-c1ccc(CN2CCOCC2)cc1 [Luminespib] (partner 0.01 µM)
Procedure, shortened: as §1

[3] = compound: Nc1ccn([C@@H]2O[C@H](CO)[C@@H](O)C2(F)F)c(=O)n1 [Gemcitabine] + Cc1cc(Nc2cc(N3CCN(C)CC3)nc(Sc3ccc(NC(=O)C4CC4)cc3)n2)n[nH]1 [Tozasertib] (partner 0.1 µM)
Procedure, shortened: as §1

[4] = compound: Nc1ccn([C@@H]2O[C@H](CO)[C@@H](O)C2(F)F)c(=O)n1 [Gemcitabine] + Cc1nc(Nc2ncc(C(=O)Nc3c(C)cccc3Cl)s2)cc(N2CCN(CCO)CC2)n1 [Dasatinib] (partner 0.075 µM)
Procedure, shortened: as §1

Cell Line | relative viability ([1]; first compound 0.001 µM) | relative viability ([1]; first compound 0.003162 µM) | relative viability ([1]; first compound 0.01 µM) | relative viability ([1]; first compound 0.03162 µM) | relative viability ([1]; first compound 0.1 µM) | relative viability ([2]; first compound 0.001 µM) | relative viability ([2]; first compound 0.003162 µM) | relative viability ([2]; first compound 0.01 µM) | relative viability ([2]; first compound 0.03162 µM) | relative viability ([2]; first compound 0.1 µM) | relative viability ([3]; first compound 0.001 µM) | relative viability ([3]; first compound 0.003162 µM) | relative viability ([3]; first compound 0.01 µM) | relative viability ([3]; first compound 0.03162 µM) | relative viability ([3]; first compound 0.1 µM) | relative viability ([4]; first compound 0.001 µM) | relative viability ([4]; first compound 0.003162 µM) | relative viability ([4]; first compound 0.01 µM) | relative viability ([4]; first compound 0.03162 µM) | relative viability ([4]; first compound 0.1 µM)
201T | 0.939 | 0.97 | 0.943 | 0.396 | 0.331 | 1.04 | 1.03 | 1.04 | 0.681 | 0.278 | 0.981 | 0.98 | 0.896 | 0.425 | 0.298 | 0.551 | 0.654 | 0.472 | 0.32 | 0.29
A-427 | 1.03 | 0.99 | 0.764 | 0.169 | 0.0914 | 1 | 0.899 | 0.443 | 0.195 | 0.171 | 0.189 | 0.19 | 0.135 | 0.13 | 0.121 | 0.67 | 0.629 | 0.183 | 0.126 | 0.109
ABC-1 | 0.95 | 0.97 | 0.838 | 0.45 | 0.307 | 0.618 | 1.05 | 0.371 | 0.25 | 0.151 | 0.185 | – | 0.159 | 0.188 | 0.187 | 0.548 | 0.483 | 0.373 | 0.175 | 0.175
BEN | 1.09 | 0.659 | 0.253 | 0.117 | 0.0816 | 0.528 | 0.317 | 0.14 | 0.12 | 0.107 | 0.56 | 0.559 | 0.419 | 0.24 | 0.175 | 0.331 | 0.254 | 0.18 | 0.0876 | 0.109
CAL-12T | 1.6 | 0.917 | 0.84 | 0.285 | 0.164 | 0.87 | 0.238 | 0.245 | 0.236 | 0.173 | 0.292 | 0.35 | 0.29 | 0.22 | 0.129 | 0.473 | 0.395 | 0.302 | 0.128 | 0.114
COR-L23 | 0.763 | 0.634 | 0.229 | 0.118 | 0.0742 | 0.742 | 0.704 | 0.311 | 0.143 | 0.0841 | 0.223 | 0.19 | 0.111 | 0.0883 | 0.0724 | 0.606 | 0.495 | 0.201 | 0.0891 | 0.0729
COR-L 105 | 1.22 | 0.95 | 0.526 | 0.261 | 0.21 | 0.886 | 0.793 | 0.571 | 0.275 | 0.188 | 0.38 | 0.31 | 0.349 | 0.263 | 0.191 | 0.295 | 0.318 | 0.274 | 0.198 | 0.154
Calu-6 | 1.02 | 0.415 | 0.224 | 0.13 | 0.12 | – | – | – | – | – | – | – | – | – | – | – | – | – | – | –
ChaGo-K-1 | – | – | – | – | – | 0.603 | 0.474 | 0.259 | 0.183 | 0.186 | 0.217 | 0.216 | 0.184 | 0.181 | 0.155 | 0.535 | 0.544 | 0.205 | 0.144 | 0.166
EKVX | 0.93 | 0.77 | 0.454 | 0.147 | 0.132 | 1.06 | 0.727 | 0.456 | 0.182 | 0.115 | 0.456 | 0.376 | 0.257 | 0.12 | 0.106 | 0.471 | 0.658 | 0.546 | 0.232 | 0.172
EMC-BAC-2 | 0.726 | 0.768 | 0.627 | 0.12 | 0.0893 | 1.29 | 1.17 | 1.04 | 0.222 | 0.194 | 0.269 | 0.32 | 0.26 | 0.176 | 0.155 | 0.348 | 0.352 | 0.181 | 0.124 | 0.137
EPLC-272H | 1.04 | 0.809 | 0.541 | 0.304 | 0.1 | 0.145 | 0.323 | 0.337 | 0.16 | 0.135 | 0.291 | 0.295 | 0.249 | 0.0772 | 0.0692 | 0.421 | 0.433 | 0.153 | 0.112 | 0.0503
H3255 | 0.8 | 0.403 | 0.472 | 0.185 | 0.168 | 0.899 | 0.752 | 0.707 | 0.271 | 0.248 | 0.604 | 0.497 | 0.407 | 0.258 | 0.209 | 0.333 | 0.38 | 0.349 | 0.225 | 0.296
HARA | 0.827 | 0.808 | 0.682 | 0.233 | 0.0894 | 0.683 | 0.847 | 0.719 | 0.0504 | 0.0409 | 0.12 | 0.103 | 0.095 | 0.0811 | 0.042 | 0.244 | 0.331 | 0.241 | 0.228 | 0.0727
